# In patent US20230303510A1, “CYCLIZED ACETAMIDO DERIVATIVES AS DNA POLYMERASE THETA INHIBITORS” (Ideaya Biosciences, Inc., priority 2020, published 2023):
# Target: T1, Pol theta polymerase domain (residues 1819-2590) (Homo sapiens, UniProt O75417)
# T1 construct: Pol theta polymerase domain (residues 1819-2590) at a final concentration of 4 nM
# T1 sequence (O75417 1819-2590): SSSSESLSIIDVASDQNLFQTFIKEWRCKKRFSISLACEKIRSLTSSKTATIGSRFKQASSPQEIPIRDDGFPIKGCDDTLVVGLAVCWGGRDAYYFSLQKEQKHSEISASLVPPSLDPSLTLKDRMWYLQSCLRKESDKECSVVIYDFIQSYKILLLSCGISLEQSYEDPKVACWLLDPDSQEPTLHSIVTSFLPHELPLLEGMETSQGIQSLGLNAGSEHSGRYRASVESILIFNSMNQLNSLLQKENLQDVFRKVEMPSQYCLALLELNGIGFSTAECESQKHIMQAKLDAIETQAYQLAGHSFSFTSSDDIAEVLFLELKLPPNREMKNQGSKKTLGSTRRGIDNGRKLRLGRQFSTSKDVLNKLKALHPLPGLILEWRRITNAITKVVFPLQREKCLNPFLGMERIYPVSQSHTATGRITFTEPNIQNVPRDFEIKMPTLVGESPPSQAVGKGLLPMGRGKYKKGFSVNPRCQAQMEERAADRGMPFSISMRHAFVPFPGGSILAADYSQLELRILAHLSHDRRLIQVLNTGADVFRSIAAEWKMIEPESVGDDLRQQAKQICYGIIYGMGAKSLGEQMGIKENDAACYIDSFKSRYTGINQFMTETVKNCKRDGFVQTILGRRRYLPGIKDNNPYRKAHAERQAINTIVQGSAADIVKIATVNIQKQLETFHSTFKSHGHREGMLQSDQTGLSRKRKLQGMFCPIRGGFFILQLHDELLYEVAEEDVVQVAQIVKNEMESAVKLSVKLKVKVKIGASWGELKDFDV
# Assay: Primer extension assay (inhibition of polymerase activity of Pol theta, molecular beacon fluorescence)
# Assay type: biochemical
# Details: Pol theta polymerase domain 4 nM; fluorescence change over 30 min
# Procedure: The ability of the compounds of Formula (I) or Formula (II) to inhibit polymerase activity of Pol theta was determined using the primer extension assay as set forth below.
# A mixture of 20 uL of Pol theta polymerase domain (residues 1819-2590) at a final concentration of 4 nM in assay buffer (20 m M TRIS, pH 7.80, 50 mM KCl, 10 mM MgCl2, 1 mM DTT, 0.01% BSA, 0.01% Tween20) was added to test compounds (11-point dilution series of test compounds) except the low control wells without test compounds. The above enzyme and test compound inhibitor mixture was then incubated at room temperature for 15 min. An equal volume (20 μl) of dNTP substrate mixture (48 μM) and primed molecular beacon DNA (obtained by annealing template SEQ ID NO:2: (5′-CCTTCCTCCCGTGTCTTG-TACCTTCCCGTCA-GGAGGAAGG-3′) with 5′-TAMRA and 3′-BHQ and primer DNA (SEQ ID NO:3; 5′-GACGGGAAGG-3′) in 10 mM Tris-HCl pH 8.0, 100 mM NaCl buffer) (96 nM) in assay buffer was added to all the test wells. The inhibition activity was measured by monitoring the fluorescence change over 30 min at 535 nm upon excitation at 485 nm. The high control (DMSO with enzyme) with high fluorescence intensity represents no inhibition of polymerase reaction while the low control (DMSO with buffer) with low fluorescence intensity represents full inhibition of polymerase activity. Slope of the reaction progress curves were used to calculate the rate of polymerization. The rates were used to determine the percent inhibition using a four-parameter inhibition model to generate IC50, Hill slope and max inhibition.
row,Structure (SMILES),IC50 [µM]
1,"CN(C(=O)[C@@H]1CCCN1c1cc(C(F)(F)F)cc(C(F)(F)F)n1)c1cccc(C#N)c1 [1.018, (S)-1-(4,6-bis(trifluoromethyl)pyridin-2-yl)-N-(3-cyanophenyl)-N-methylpyrrolidine-2-carboxamide]",≤ 0.2
2,"CN(C(=O)C1CCCN1c1nc(C(F)(F)F)cc(C(F)(F)F)n1)c1ccc(F)cc1 (stereo not drawn) [1.017, 1-(4,6-bis(trifluoromethyl)pyrimidin-2-yl)-N-(4-fluorophenyl)-N-methylpyrrolidine-2-carboxamide]",≤ 0.2
3,"CN(C(=O)[C@@H]1C[C@@H](O)CN1c1cc(C(F)(F)F)cc(C(F)(F)F)n1)c1ccc(F)cc1 [1.016, (2S,4R)-1-(4,6-bis(trifluoromethyl)pyridin-2-yl)-N-(4-fluorophenyl)-4-hydroxy-N-methylpyrrolidine-2-carboxamide]",≤ 0.2
4,"CN(C(=O)[C@@H]1C[C@H](O)CN1c1cc(C(F)(F)F)cc(C(F)(F)F)n1)c1ccc(F)cc1 [1.013, (2S,4S)-1-(4,6-bis(trifluoromethyl)pyridin-2-yl)-N-(4-fluorophenyl)-4-hydroxy-N-methylpyrrolidine-2-carboxamide]",≤ 0.2
5,"CN(C(=O)[C@@H]1CCCN1c1cc(C(F)(F)F)ccn1)c1ccc(F)cc1 [1.014, (S)-N-(4-fluorophenyl)-N-methyl-1-(4-(trifluoromethyl)pyridin-2-yl)pyrrolidine-2-carboxamide]",≤ 0.2
6,"CN(C(=O)[C@@H]1CCCN1c1cc(C(F)(F)F)cc(C(F)(F)F)n1)c1ccc(Br)cc1 [1.009, (S)-1-(4,6-bis(trifluoromethyl)pyridin-2-yl)-N-(4-bromophenyl)-N-methylpyrrolidine-2-carboxamide]",≤ 0.2
7,"O=C([C@@H]1CCCN1c1cc(C(F)(F)F)cc(C(F)(F)F)n1)N(c1ccc(F)cc1)C1CC1 [1.012, (S)-1-(4,6-bis(trifluoromethyl)pyridin-2-yl)-N-cyclopropyl-N-(4-fluorophenyl)pyrrolidine-2-carboxamide]",≤ 0.2
8,"Fc1ccc(-c2cccnc2C2CCCN2c2cc(C(F)(F)F)cc(C(F)(F)F)n2)cc1 (stereo not drawn) [1.008, 2-(2-(3-(4-fluorophenyl)pyridin-2-yl)pyrrolidin-1-yl)-4,6-bis(trifluoromethyl)pyridine]",≤ 0.2
9,"CN(C(=O)C1CCCN1c1cc(C(F)(F)F)cc(C(F)(F)F)n1)c1ccc(F)cc1 (stereo not drawn) [1.001, 1-(4,6-bis(trifluoromethyl)pyridin-2-yl)-N-(4-fluorophenyl)-N-methylpyrrolidine-2-carboxamide]",≤ 0.2
10,"CN(C(=O)[C@@H]1CCCN1c1cc(C(F)(F)F)cc(C(F)(F)F)n1)c1ccc2occc2c1 [1.010, (S)-N-(benzofuran-5-yl)-1-(4,6-bis(trifluoromethyl)pyridin-2-yl)-N-methylpyrrolidine-2-carboxamide]",≤ 0.2
11,"CN(C(=O)C1CCCCN1c1cc(C(F)(F)F)cc(C(F)(F)F)n1)c1ccc(F)cc1 (stereo not drawn) [1.007, 1-(4,6-bis(trifluoromethyl)pyridin-2-yl)-N-(4-fluorophenyl)-N-methylpiperidine-2-carboxamide]",≤ 0.2
12,"Cc1cc(C)nc(N2CCC[C@H]2C(=O)N(C)c2ccc(F)cc2)c1 [1.031, (S)-1-(4,6-dimethylpyridin-2-yl)-N-(4-fluorophenyl)-N-methylpyrrolidine-2-carboxamide]",0.2 to 0.5
13,"CN(C(=O)[C@@H]1CCCN1c1cccc(C(F)(F)F)n1)c1ccc(F)cc1 [1.015, (S)-N-(4-fluorophenyl)-N-methyl-1-(6-(trifluoromethyl)pyridin-2-yl)pyrrolidine-2-carboxamide]",≤ 0.2
14,"CN(C(=O)[C@@H]1CCCN1c1cc(C(F)(F)F)cc(C(F)(F)F)n1)c1ccncc1 [1.011, (S)-1-(4,6-bis(trifluoromethyl)pyridin-2-yl)-N-methyl-N-(pyridin-4-yl)pyrrolidine-2-carboxamide]",≤ 0.2
15,"CN(C(=O)C1CCCN1c1ccccc1)c1ccccc1 (stereo not drawn) [1.004, N-methyl-N,1-diphenylpyrrolidine-2-carboxamide]",1 to 10
16,"CN(C(=O)C1CCN1c1cc(C(F)(F)F)cc(C(F)(F)F)n1)c1ccc(F)cc1 (stereo not drawn) [1.005, 1-(4,6-bis(trifluoromethyl)pyridin-2-yl)-N-(4-fluorophenyl)-N-methylazetidine-2-carboxamide]",≤ 0.2

# Target: T2, Pol theta (residues 1819-2590) (Homo sapiens, UniProt O75417)
# T2 construct: Pol theta polymerase domain (residues 1819-2590) at a final concentration of 4 nM
# T2 sequence (O75417 1819-2590): T1 sequence (O75417 1819-2590)
# Assay: PPi assay (inhibition of polymerase activity of Pol theta, PPiLite luminescence)
# Assay type: biochemical
# Details: Pol theta 2.8 nM; luminescence kinetic mode 90 min
# Procedure: The ability of the compounds of Formula (I) or Formula (II) to inhibit polymerase activity of Pol theta was determined using the PPi assay as set forth below.
# A mixture of template DNA strand (SEQ ID NO:4: 5′ ATTACTGACCTCATACTTCTGCCCTTCCATGTTCTGTGCCCTCCTTCC 3′) and primer DNA strand (SEQ ID NO:5: 5′ GGA AGG AGG GCA CAG AAC 3′) was annealed in 10 mM Tris-HCl pH 8.0, […] buffer to form the primed DNA substrate. A 10-point dilution series of compounds were used in a 384 well format for the inhibition assay. Pol theta (residues 1819-2590) (2.8 nM) in assay buffer (20 mM Tris-HCl pH 7.8, 50 mM KCl, 10 mM MgCl2, 1 mM DTT, 0.01% BSA, 0.01% Tween-20) was transferred to the test wells (10 uL), except for the low control wells. The plate was then incubated at room temperature for 15 mins. An equal volume (10 μL) of dNTP substrate (40 μM) and primed DNA substrate (800 nM) in assay buffer was added to all the test wells. 20 μL of PPi detection reagent (PPiLite inorganic pyrophosphate assay, Lonzo) was then added to all test wells. The plate was then centrifuged at 1000 rpm for 1 min. The reaction was monitored in a Tecan M1000 Pro plate reader in luminescence kinetic mode for 90 min. The high control (DMSO with enzyme) with high luminescence represents no inhibition of the polymerase reaction while the low control (DMSO with buffer) with low luminescence represents full inhibition of the polymerase activity. Slope of the reaction progress curves were used to calculate the rate of polymerization. The rates were used to determine the percent inhibition using a four-parameter inhibition model to generate IC50, Hill slope, maximum inhibition, and minimum inhibition.
row,Structure (SMILES),IC50 [µM]
1,"O=C([C@@H]1CCCN1c1cc(C(F)(F)F)cc(C(F)(F)F)n1)N(c1ccc(F)cc1)C1COC1 [1.030, (S)-1-(4,6-bis(trifluoromethyl)pyridin-2-yl)-N-(4-fluorophenyl)-N-(oxetan-3-yl)pyrrolidine-2-carboxamide]",≤ 0.2
2,"C[C@@H]1CC[C@@H](C(=O)N(C)c2ccc(F)cc2)N1c1cc(C(F)(F)F)cc(C(F)(F)F)n1 [1.023, (2S,5R)-1-(4,6-bis(trifluoromethyl)pyridin-2-yl)-N-(4-fluorophenyl)-N,5-dimethylpyrrolidine-2-carboxamide]",0.5 to 1
3,"CN(C(=O)[C@@H]1CCN1c1nc(C(F)(F)F)cc(C(F)(F)F)c1C#N)c1ccc(F)cc1 [1.025, (S)-1-(3-cyano-4,6-bis(trifluoromethyl)pyridin-2-yl)-N-(4-fluorophenyl)-N-methylazetidine-2-carboxamide]",≤ 0.2
4,"Fc1ccc(-c2cccnc2[C@@H]2CCCN2c2cc(C(F)(F)F)cc(C(F)(F)F)n2)cc1 [1.026, (S)-2-(2-(3-(4-fluorophenyl)pyridin-2-yl)pyrrolidin-1-yl)-4,6-bis(trifluoromethyl)pyridine]",≤ 0.2
5,"CN(C(=O)[C@@H]1[C@H](O)CCN1c1cc(C(F)(F)F)cc(C(F)(F)F)n1)c1ccc(F)cc1 [1.029, (2S,3R)-1-(4,6-bis(trifluoromethyl)pyridin-2-yl)-N-(4-fluorophenyl)-3-hydroxy-N-methylpyrrolidine-2-carboxamide]",≤ 0.2
6,"Fc1ccc(-c2cccnc2[C@H]2CCCN2c2cc(C(F)(F)F)cc(C(F)(F)F)n2)cc1 [1.027, (R)-2-(2-(3-(4-fluorophenyl)pyridin-2-yl)pyrrolidin-1-yl)-4,6-bis(trifluoromethyl)pyridine]",1 to 10
7,"O=C([C@@H]1CCCN1c1cc(C(F)(F)F)cc(C(F)(F)F)n1)N(c1ccccc1)c1ccccc1 [1.028, (S)-1-(4,6-bis(trifluoromethyl)pyridin-2-yl)-N,N-diphenylpyrrolidine-2-carboxamide]",1 to 10
8,"C[C@H]1CC[C@@H](C(=O)N(C)c2ccc(F)cc2)N1c1cc(C(F)(F)F)cc(C(F)(F)F)n1 [1.021, (2S,5S)-1-(4,6-bis(trifluoromethyl)pyridin-2-yl)-N-(4-fluorophenyl)-N,5-dimethylpyrrolidine-2-carboxamide]",≤ 0.2
